Measured values as given in PMC3366916, “Characterization of a Conserved Interaction between DNA Glycosylase and ParA in Mycobacterium smegmatis and M. tuberculosis” (PLoS ONE, 2012).

How the values were obtained:
MsParA (Ms6939) = target: T1, MsParA (Ms6939) (Mycolicibacterium smegmatis, UniProt A0R7J4); experiment: malachite green phosphate release ATPase assay; assay type: biochemical; settings: 200 uM ATP, 150 nM protein, 1 mM MgCl2, 50 mM HEPES pH 8.0, 37 C
T1 construct: gene MSMEG_6939; recombinant, E. coli BL21, pET28a (6xHis) or pGEX-4T-1 (GST)
T1 sequence (A0R7J4 1-323): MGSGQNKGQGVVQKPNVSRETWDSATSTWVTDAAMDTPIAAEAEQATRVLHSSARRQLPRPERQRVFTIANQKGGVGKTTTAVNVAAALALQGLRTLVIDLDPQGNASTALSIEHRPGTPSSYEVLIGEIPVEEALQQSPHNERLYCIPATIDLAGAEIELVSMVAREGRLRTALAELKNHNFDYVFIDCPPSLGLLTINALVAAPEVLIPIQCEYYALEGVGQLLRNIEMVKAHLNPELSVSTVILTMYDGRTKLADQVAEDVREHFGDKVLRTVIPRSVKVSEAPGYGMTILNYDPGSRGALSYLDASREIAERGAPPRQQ

MtTAG (Rv1210) = target: T2, MtTAG (Rv1210) (Mycobacterium tuberculosis, UniProt O05311)
T2 construct: gene tagA
T2 sequence (O05311 entry or part of it): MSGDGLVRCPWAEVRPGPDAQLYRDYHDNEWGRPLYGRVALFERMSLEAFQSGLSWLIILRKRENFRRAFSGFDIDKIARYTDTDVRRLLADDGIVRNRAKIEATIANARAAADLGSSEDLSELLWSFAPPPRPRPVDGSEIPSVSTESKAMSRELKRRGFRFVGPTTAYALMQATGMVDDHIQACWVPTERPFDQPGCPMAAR

MsTAG (Ms5082) = target: T3, MsTAG (Ms5082) (Mycolicibacterium smegmatis, UniProt A0R2E4); experiment: malachite green phosphate release ATPase assay; assay type: biochemical; settings: 200 uM ATP, 150 nM protein, 1 mM MgCl2, 50 mM HEPES pH 8.0, 37 C
T3 construct: gene tag; recombinant, E. coli BL21, pET28a (6xHis) or pGEX-4T-1 (GST)
T3 sequence (A0R2E4 1-209): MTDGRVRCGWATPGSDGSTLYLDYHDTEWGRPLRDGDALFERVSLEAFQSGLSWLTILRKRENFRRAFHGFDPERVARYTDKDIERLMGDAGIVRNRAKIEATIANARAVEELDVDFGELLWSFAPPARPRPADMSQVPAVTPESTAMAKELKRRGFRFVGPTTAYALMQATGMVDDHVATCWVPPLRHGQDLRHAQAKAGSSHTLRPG

Nc1ncnc2c1ncn2[C@@H]1O[C@H](COP(=O)(O)OP(=O)(O)OP(=O)(O)O)[C@@H](O)[C@H]1O [ATP]
malachite green phosphate release ATPase assay (MsParA (Ms6939)): verifying that MsParA had ATPase activity (Fig. 5A)
malachite green phosphate release ATPase assay (MtTAG (Rv1210)): MtTAG had an obvious ATPase activity but Rv1210-K78A, its mutant variant, did not
malachite green phosphate release ATPase assay (MsTAG (Ms5082)): MsTAG was found to have stronger ATPase activity than MsParA under the same conditions
